Test results published in patent US20030165475A1, “Non-lethal methods for conditioning a recipient for bone marrow transplantation” (priority 1993, published 2003).
Values joined by “and” are separate entries in the source; they are usually repeats but may differ in a detail not shown here. Equal values may be shown once.

What was measured:
baboon = conditions: CyP day -3, -2, -1 + 9.5 Gy TLI day 0
B10 mice = assay type: in vivo, mouse
Description: Briefly, peripheral blood was collected into heparinized plastic serum vials. […] (400g×20 minutes). […] Lymphocytes were stained for class I antigens with anti-H-2^b-FITC (Pharmingen; San Diego, Calif.), anti-H-2^k-FITC (Pharmingen), and anti-H-2^d-FITC (Pharmingen) monoclonal antibodies (Mab) for 45 minutes at 4° C. Lineage typing was performed by two color flow cytometry using anti-B-cell (B220-FITC, Pharmingen), anti-T cell (αβ-TCR-PE, CD4-FITC, CD8-PE, Pharmingen), anti-natural killer cell (NK1.1-PE, Pharmingen), anti-granulocyte (GR-1-FITC, Pharmingen), and anti-monocyte/macrophage (MAC-1-FITC, Boehringer Mannheim; Indianapolis, Id.) Mab. […] Analyses were performed using forward and side scatter characteristics for the lymphoid and myeloid gates.
To examine whether ALG would enhance the engraftment of allogeneic bone marrow in the established radiation-based model, recipient B10 mice received one of three conditioning approaches prior to transplantation with 40×10^6 or 15×10^6 BALB/c bone marrow cells: 70 mg/kg i.v. ALG given three,days prior to bone marrow transplantation (Group 1); 5Gy of TBI on the day of transplantation (Group 2); or both ALG and TBI as administered in groups 1 and 2 (Group 3). The timing of ALG was chosen to assure maximum immunosuppression at the time of allogeneic bone marrow infusion (Wood et al., 1971, Trans Proc 3(l):676). As in previous analysis, recipients were peripheral blood leukocyte (PBL)-typed for evidence of allogeneic engraftment 2 months following bone marrow transplantation.
To examine the influence of donor cell number on the ability of ALG and TBI to enhance alloengraftment, dose-titration studies were performed in which the above established radiation plus ALG conditioning were utilized. Recipients were conditioned as above prior to receiving 40×10^6, 15×10^6, or 5×10^6 BALB/c bone marrow cells.
Animals were PBL typed 2 months following reconstitution.
To examine the influence of timing of radiation on the engraftment of allogeneic bone marrow, recipient B10 mice were irradiated with 5Gy TBI one week prior to transplantation with 40×10^6 BALB/c allogeneic bone marrow cells.
B10 mice were treated with ALG at 2 mg/mouse i.v. at day −3 before bone marrow transplantation.

In the case of O=P1(N(CCCl)CCCl)NCCCO1 (centres unmarked) [CyP, cyclophosphamide], the GVHD / morbidity (baboon) is reported as “no GVHD or significant morbidity”, the “chimerism, human cells” value (baboon; two months after transplantation) is reported as 15% and the “engraftment of allogeneic bone marrow” value (B10 mice; 5Gy TBI + CyP 200 mg/kg i.p. 2 days later, 40 × 10^6 B10.BR or BALB/c → B10, 2 months) is reported as “nearly all recipients”. For the same compound, the “degree of donor chimerism” value (B10 mice; 5Gy TBI + CyP 200 mg/kg i.p. 2 days later, all chimeras) was > 90%, the recipient mice engrafted (B10 mice; 5Gy TBI and CyP, regardless of donor strain or CyP before or shortly after TBI (n=15)) was ~75% and the “% BALB/c lymphoid cells” value (B10 mice; 5 Gy TBI-based regimen, BALB/c → B10, individual animals, flow cytometry, 2 months) was 99% and 98% and 91% and 92%. The engraftment (B10 mice; CyP 200 mg/kg i.p. alone, no TBI) was “failed to engraft” and the allogeneic donor chimerism (B10 mice; chimeras after 5Gy TBI and CyP) was ≥ 90%.
